Measurements reported in patent US6924100B2, “Gene alteration in the gene for the Gβ3-subunit of the human G protein” (priority 1998, dated 2005).

Key:
coronary vessels = experiment: Coronary blood flow change after intracoronary BHT 933; assay type: in vivo, human; details: carriers of the GNB3-825T allele, with or without CHD, FIG. 8
Text: An alpha2 adrenergic agonist (BHT 933) was applied intracoronary in the probands; it leads to contraction of coronary vessels. This effect was quantified via the flow change through these sections of the vessels. […] This means that in carriers of the GNB3-825T allele the intensification of the action of these pharmaceuticals can be predicted.

[1] = target: T1, m2-muscarinergic receptor (Homo sapiens, UniProt P08172); experiment: G protein stimulation by carbachol in Sf9 cells expressing m2-muscarinergic receptor, Galphai3, Ggamma5 and Gβ3 or Gβ3s; assay type: cell-based; details: in the presence of Gβ3 (so in the source), FIG. 2
T1 sequence (P08172 1-466): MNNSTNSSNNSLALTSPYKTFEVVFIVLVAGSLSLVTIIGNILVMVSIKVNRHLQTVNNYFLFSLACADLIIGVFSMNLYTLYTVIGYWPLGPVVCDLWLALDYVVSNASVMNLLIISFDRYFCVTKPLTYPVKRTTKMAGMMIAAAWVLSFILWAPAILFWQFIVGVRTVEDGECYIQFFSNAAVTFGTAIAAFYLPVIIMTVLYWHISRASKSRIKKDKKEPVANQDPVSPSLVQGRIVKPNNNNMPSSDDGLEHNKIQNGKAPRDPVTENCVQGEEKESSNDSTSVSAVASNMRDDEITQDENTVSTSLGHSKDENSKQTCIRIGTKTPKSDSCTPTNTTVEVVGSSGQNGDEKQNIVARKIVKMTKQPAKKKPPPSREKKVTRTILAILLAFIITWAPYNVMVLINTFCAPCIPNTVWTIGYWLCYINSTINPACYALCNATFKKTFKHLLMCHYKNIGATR
Text: Here the m2-muscarinergic receptor is expressed together with the G protein subunits Galphai3 and Ggamma5 and either Gβ3 or Gbeta3-s in the Sf9 system.

[2] = system: beta-adrenergic receptors; experiment: Cardiac output after intravenous beta-adrenoceptor blocker; assay type: in vivo, human; details: average
[3] = system: males with penile dysfunction; experiment: Erection score and arterial blood flow after prostaglandin E1 injection into the corpus cavernosum; assay type: in vivo, human; details: for males with insufficient or absent erection / males with sufficient erection (scores 4 and 5): 10 micrograms, of 87 males
Protocol: When erectile dysfunction is present, prostaglandin E1 is injected into the corpus cavemosum for diagnostic clarification, but also possibly to begin long-term therapy. Prostaglandin E1 activates adenylcyclase, and the subsequent formation of cAMP relaxes smooth vascular muscle cells and thus induces an increased arterial blood flow and thus erection of the penis. The degree of the erection which occurs can be quantified via a point system (score 0-5). Here the scores 4 and 5 correspond to an erection which is sufficient for penetration, while scores<4 can be considered as insufficient.
In 87 males with penile dysfunction, 10 micrograms of prostaglandin E1 were administered with quantification of the erection score. Here the genotype distribution was as follows: Sufficient erection (scores 4 and 5): TT=3; TC=15; CC=16; (frequency of GNB3 825T allele: 30.9%). Insufficient or absent erection: TT=3; TC=16; CC=34; (frequency of the GNB3 825T allele: 20.8%).

[4] = system: neutrophilic granulocytes; experiment: fMLP-stimulated chemotaxis of neutrophilic granulocytes; assay type: cell-based, human; details: granulocytes of carriers of the GNB3-825T allele, FIG. 5
Text: It is therefore used as a test system for measurement of chemotactic reactions of cells which is well known to one skilled in the art. The fMLP receptor, as is known, activates the pertussis toxin-sensitive G proteins. The statement that granulocytes of carriers of the GNB3-825T allele show intensified fMLP-stimulated chemotaxis is in agreement with the fact that chemotaxis of betagamma subunits is mediated.

[5] = system: phospholipase Cβ3 (PLCbeta3); experiment: Inositol phosphate formation in COS-7 cells transfected with PLCβ3, Ggamma12 and Gβ subunits; assay type: cell-based; details: betagamma dimers with Ggamma12, FIG. 16
Text: It is generally known that betagamma subunits of heterotrimeric G proteins can stimulate different isoforms of the phospholipase Cbeta. This enzyme splits phospholipids, for example phosphatdylinositol-4,5-bisphosphate into the “second messenger” molecules inositol-1,4,5 triphosphate (IP3) and 1,2-diacylglycerol (DAG), IP3 causes release of calcium ions from intracellular reservoirs, while DAG activates different isoforms of the protein kinase C. Activation of phospholipase C is thus an important step in cell activation. It was examined whether betagamma subunits which contain Gβ3s-2 can activate the phospholipase Cβ3 (PLCbeta3). To do this the COS-7 cell system was used which is often used in the generally accessible literature for transient transfection of proteins. These cells were transfected with the PLCβ3, Ggamma12 and different Gβ subunits. The cells were pretreated with radioactively tagged [3H] inositol. The formation of inositol phosphates (IP) was quantified using standard methods, the amount of the 1P formed constituting a measure of the activation of the PLC. As is shown in FIG. 16, betagamma dimers which contain Gβ3, Gβ3s, or Gβ3s-2 can activate PLCβ33. Likewise, activation of PLCβ3 after transfection of Gβ1 is shown for comparison.

G protein alpha subunits = experiment: 35S-GTPgammaS binding to permeabilized Sf9 cells (Galphai2, Ggamma12, m2 receptor) after carbachol; assay type: cell-based, human; details: carbachol 100 microM, versus no beta subunit, FIG. 15
Text: First of all, it was studied whether G protein heterotrimers which contain Gβ3s-2 are functionally active. As described earlier, the Sf9 insect cell system was used for this purpose (Siffert, W., Rosskopf, D., Siffert, G., Busch, S., Moritz, A., Erbel, R., Sharma, A. M., Ritz, E.; Wichmann, H. E., Jakobs, K. H., and Horsthemke, B. Association of a human G protein β3 subunit variant with hypertension. Nat. Genet. 18(1): 45-48, 1998). The cells were transfected with Galphai2, Ggamma12 and the m2-muscarinergic acetylcholine receptor. The bonding of 35S-GTPgammaS to permeabilized cells was quantified after stimulation with carbachol (100 microM). Here the specific incorporation of 35S-GTPgammaS is a measure of the activation of G protein alpha subunits. […] Thus it is shown at the same time that Gβ3s-2 in spite of the deletion of one propeller blade is functionally active and even leads to intensified activation of G proteins. […] Galphai2, Galphai3, G-1, and G-2 are not mutated. Circ. Res. 79:974-983, 1996. Siffert, W., Rosskopf, D., Moritz, A., Wieland, T., Kaldenberg-Stasch, S., Kettler, N., Hartung, K., Bechmann, S., and Jakobs, K. H. Enhanced G protein activation in immortalized lymphoblasts from patients with essential hypertension. J. Clin. Invest. 96:759-766, 1995. Wirchow, S., Ansorge, N., Ruebben, H., Wiffert, G., and Siffert, W. Enhanced fMLP-stimulated chemotaxis in human neutrophils from individuals carrying out the G protein beta3 subunit 825T-allele. FEBS Lett. 436(2): 155-158, 1998).

G protein alpha-subunits = experiment: [35S]GTPgammaS incorporation after Mas-7 stimulation, COS-7 transfection system; assay type: cell-based, human; details: COS-7 cells, FIG. 1
Text: The subject matter of this invention is based on the finding that the Gβ3s subunit leads to increased activation capacity of G proteins. The increased activation capacity of G proteins was detected via transfection of the corresponding cDNAs and the expression of Gβ3 and Gβ3s in the COS-7 transfection system which is well known to one skilled in the art. […] To quantify the activation capacity of G proteins, here the incorporation of radioactively tagged [35S]GTPgammaS into G protein alpha-subunits after stimulation with the peptide mastoparan-7 (Mas-7) was measured.

## CCN1CCc2nc(N)oc2CC1 [BHT 933]
Coronary vessels
  reduction of coronary blood flow: intensified reduction of coronary blood flow

## C[N+](C)(C)CCOC(N)=O [carbachol]
[1]
  potency and efficiency of the agonist for stimulation of G proteins: increased potency and increased efficiency

## CC(C)NCC(O)COc1cccc2ccccc12 (stereo not shown) [propanolol]
[2]; homozygotic C825 carriers
  decrease of cardiac output: 3 mL
[2]; homozygotic and heterozygotic 828T (so in the source) allele carriers
  decrease of cardiac output: 12 mL

## CCCCC[C@H](O)/C=C/[C@H]1[C@H](O)CC(=O)[C@@H]1CCCCCCC(=O)O [prostaglandin E1]
[3]; genotype CC
  males with insufficient or absent erection: 34
  males with sufficient erection (scores 4 and 5): 16
[3]; genotype TC
  males with insufficient or absent erection: 16
  males with sufficient erection (scores 4 and 5): 15
[3]; genotype TT
  males with insufficient or absent erection: 3
  males with sufficient erection (scores 4 and 5): 3
[3]; after injection, homozygotic C825 allele carriers
  increase of the arterial blood flow (doppler sonography): reduced increase of the arterial blood flow

## fMLP
[4]
  chemotaxis: increased chemotaxis

B1: Gβ3: Gβ3-subunit of the human G protein (protein, UniProt P16520 1-340, looked up)
Guanine nucleotide-binding …: MGEMEQLRQEAEQLKKQIADARKACADVTLAELVSGLEVVGRVQMRTRRTLRGHLAKIYAMHWATDSKLLVSASQDGKLIVWDSYTTNKVHAIPLRSSWVMTCAYAPSGNFVACGGLDNMCSIYNLKSREGNVKVSRELSAHTGYLSCCRFLDDNNIVTSSGDTTCALWDIETGQQKTVFVGHTGDCMSLAVSPDFNLFISGACDASAKLWDVREGTCRQTFTGHESDINAICFFPNGEAICTGSDDASCRLFDLRADQELICFSHESIICGITSVAFSLSGRLLFAGYDDFNCNVWDSMKSERVGILSGHDNRVSCLGVTADGMAVATGSWDSFLKIWN
[5]
  activation of PLCβ3 (inositol phosphate formation): can activate
G protein alpha subunits
  G protein activation (specific 35S-GTPgammaS incorporation): clearly intensified

B2: Gβ3s: alternative splice product of human GNB3 with loss of 41 amino acids (protein, listed as Homo sapiens)
chain: MGEMEQLRQEAEQLKKQIADARKACADVTLAELVSGLEVVGRVQMRTRRTLRGHLAKIYAMHWATDSKLLVSASQDGKLIVWDSYTTNKVHAIPLRSSWVMTCAYAPSGNFVACGGLDNMCSIYNLKSREGNVKVSRELSAHTGYLSCCRFLDDNNIVTSSGDTTCALWDIETGQQKTVFVGHTGDCMSLAVSPDFNLFISGACDASAKLWDVREGTCRQTFTGQESDINAICFFSLSGRLLFAGYDDFNCNVWDSMKSERVGILSGHDNRVSCLGVTADGMAVATGSWDSFLKIWN
G protein alpha-subunits
  activation capacity of G proteins ([35S]GTPgammaS incorporation): clearly increased compared to Gβ3
[5]
  activation of PLCβ3 (inositol phosphate formation): can activate
G protein alpha subunits
  G protein activation (specific 35S-GTPgammaS incorporation): more potent than Gβ3

B3: Gβ3s-2: new splice variant of the Gβ3 subunit of human G protein, deletion of 43 amino acids, SEQ ID NO:4 (protein, listed as Homo sapiens)
chain: B2 chain
[5]
  activation of PLCβ3 (inositol phosphate formation): can activate
G protein alpha subunits
  G protein activation (specific 35S-GTPgammaS incorporation): strongest potentiation
